The text below walks through data of patent US10398751B2, “Pharmaceutical compositions of water soluble peptides with poor solubility in isotonic conditions and methods for their use” (STRONGBRIDGE IRELAND LIMITED, priority 2016, dated 2019).

The structures appear in SMILES notation. Structures can show the parent of a compound that is named as a salt. Where two headings read alike, the source gives them in different places.

The nature of data set [1]: Emulsification of cottonseed oil and water for injection. In kind it is physicochemical. How it is done: Based on its amphiphilic properties, veldoreotide acetate was evaluated by means of emulsion formulation. […] Thus, veldoreotide acetate may be considered a w/o ionic surfactant or hydrotrope with a hydrophilic lipophilic balance (HLB) of 6.
The samples were mixed using 25G syringe and vortexed at room temperature.
Veldoreotide was formulated as a water in oil emulsion using 80% (wt %) cottonseed oil, 20% (wt %) water for injection (WFI) and 1% (wt %) veldoreotide acetate. Specifically, 10 mg of veldoreotide acetate was dissolved in 200 uL WFI in a 5 mL glass vial, 800 mg of cottonseed oil was added and the resulting mixture was stirred under magnetic stirring at room temperature for 15 minutes at 1000 rpm. The emulsion was then viewed under the light microscope and stored under refrigeration. The resulting emulsion was stable and found to be injectable via 27G needle.

A short description of data set [2]: in vivo. The arrangement: species or system rats. Conditions: rat, sc. As to the method: The lactic acid vehicle for use in the formulations as shown in Table 7 below was prepared as follows: Formulations for injection into rats were prepared as summarized in Table 8. Subject rats (mean weight of about 370 grams per subject) were injected according to the above dosing schedule in groups of 5 rats per treatment. Baseline tail bleed samples were drawn from the rats at 2 days prior to dosing. […] Blood samples were approximately 300 uL of whole blood collected in commercial K3 EDTA-coated tubes. Subject rats were also observed for injection site reactions for up to 5-7 days post-dosing. Blood samples were kept on ice following collection until the time of centrifugation. Blood samples were processed within 60 minutes from blood collection. Samples were centrifuged at 3000 G for 15 minutes in a refrigerated centrifuge (5° C.). Plasma was withdrawn from the tubes after centrifugation and placed into new, appropriately labeled tubes and stored at −65° C. to −80° C. until transfer. […] Veldoreotide acetate standard was serially diluted with methanol:water (1:9) and added to blank rat plasma to generate calibration standards and QC samples. The calibration samples were stored at −70° C. Frozen samples were then thawed to room temperature. Blank plasma and reagent blank (water) were also prepared. For each 100 uL aliquot of sample, calibrator or QC sample, 25 uL (˜100 ng/mL) of internal standard (octreotide acetate) in methanol:water (1:9) and 600 uL of acetonitrile:formic acid (99:1) were added and the samples vortex mixed for 30 seconds. Samples were diluted by mixing 20 uL of plasma sample with 180 uL of blank plasma and aliquotted at 100 uL prior to addition of the internal standard and acetonitrile:formic acid solutions. Samples were then centrifuged for 10 minutes at 14,000 rpm at 8° C. 450 uL of the upper (organic) layer was then transferred to evaporation tubes and evaporated under nitrogen at about 50° C. Samples were then reconstituted in 200 uL of reconstitution solution (water:acetonitrile:formic acid at 70:30:0.2). Samples were centrifuged for 10 minutes at 4000 rpm at 8° C. 160 uL of each sample was withdrawn and placed in an autosampler vial with conic glass insert and analyzed via LC-MS/MS. Veldoreotide acetate plasma concentrations were then plotted and analyzed using standard pharmacokinetic techniques.

Data set [3] in a line: Solubility of COR005 acetate in aqueous media with additives at 25° C. Conditions: read-out: Solubility of COR005 Acetate (mg/ml) at 25° C. In kind it is physicochemical. The text has this: Table 3 summarizes the solubility values of COR005 acetate in various aqueous media, the effects of additives such as DEX and HPB on the peptide solubility in saline and physiological conditions, as well as the PK profile of IR and MS formulations prepared with these additives in comparison to COR005 without additives as control.
Note that both media (PBS or Saline) contained physiological concentrations of chloride which indicates the incompatibility and salting out of the peptide in the presence of the chloride ion.
The relatively high solubility of COR005 acetate in 5% dextrose (in water) of greater than 500 mg/ml indicates the improved solubility of the peptide in water with dextrose. […] Note that this 1:1 diluted dextrose in saline was used as a vehicle in the IR study of COR005 acetate in rats and minipigs (the DEX:PEP ratio was 5:1).

For the compound `C[C@@H](O)[C@@H]1NC(=O)[C@H](CCCCN)NC(=O)[C@@H](Cc2c[nH]c3ccccc23)NC(=O)[C@H](Cc2c[nH]c3ccccc23)NC(=O)[C@H](Cc2ccccc2)NC(=O)CCCNC(=O)CCCN(CC(N)=O)C(=O)[C@H](Cc2ccccc2)NC1=O` [Veldoreotide, cyclo(-γ-aminobutyryl-L-phenylalanyl-L-tryptophanyl-D-tryptophanyl-L-lysyl-L-threonyl-L-phenylalanyl-N-carbamoylmethyl-γ-aminobutyryl)], in data set [1] (16.6 weight % cottonseed oil, 74.2 weight % WFI, 9.2 weight % peptide, room temperature), the emulsification result is on record as “allowing an emulsion to form”. For the same compound, the Cmax (in general, the peak of the concentration-time curve) amounted to 544 ng/mL in data set [2] (HSD:Sprague Dawley SD, 3 mg/kg, Rats Cmax (ng/ml)) and 345 ng/mL in data set [2] (HSD:Sprague Dawley SD, 3 mg/kg, pH 4, Rats Cmax (ng/ml)). For the same compound, in data set [3] (isotonic 5% dextrose in water, 5% Dextrose Isotonic, additives none), the solubility was over 500 mg/mL.
For the compound `C[C@@H](O)[C@@H]1NC(=O)[C@H](CCCCN)NC(=O)[C@@H](Cc2c[nH]c3ccccc23)NC(=O)[C@H](Cc2c[nH]c3ccccc23)NC(=O)[C@H](Cc2ccccc2)NC(=O)CCCNC(=O)CCCN(CC(N)=O)C(=O)[C@H](Cc2ccccc2)NC1=O` [Veldoreotide Acetate, Cyclo(-γ-aminobutyryl-L-phenylalanyl-L-tryptophanyl-D-tryptophanyl-L-lysyl-L-threonyl-L-phenylalanyl-N-carbamoylmethyl-γ-aminobutyryl), acetate salt], the “hydrophilic lipophilic balance (HLB)” value in data set [1] (w/o ionic surfactant or hydrotrope) came out at 6. For the same compound, the Cmax worked out at 544 ng/mL in data set [2] (Sprague-Dawley, 3 mg/kg, Rats Cmax (ng/ml)); 345 ng/mL in data set [2] (Sprague-Dawley, 3 mg/kg, pH 4, Rats Cmax (ng/ml)); 350 ng/mL in data set [2] (Sprague-Dawley, pH 4, Rats Cmax (ng/ml)). The bioavailability (as a rule, dose-corrected exposure relative to a reference, in per cent) in data set [2] (Sprague-Dawley, 3 mg/kg, pH 4, Rats BA (F %)) worked out at 83%; in data set [2] (Sprague-Dawley, […], Rats BA (F %)), 82%; in data set [2] (Sprague-Dawley, pH 4, Rats BA (F %)), 70%. For the same compound, the solubility was 6 to 7 mg/mL in data set [3] (0.45% NaCl with […] dextrose (isotonic), Isotonic 0.45NS (0.45% NaCl) 2.5D Dextrose […], DEX:PEP 5:1); 3 mg/mL in data set [3] (0.45% NaCl, 0.45NS - 0.45% NaCl, additives none); at least 300 mg/mL in data set [3] (5% dextrose in water (isotonic), 5% Dextrose Isotonic, additives none); 4.5 mg/mL in data set [3] (isotonic PBS pH 7.4, pH 7.4, PBS pH 7.4 Isotonic, HPB:PEP 1:1); 2.5 mg/mL in data set [3] (isotonic PBS pH 7.4, pH 7.4, PBS pH 7.4 Isotonic, HPB:PEP 1:4); 10 mg/mL in data set [3] (isotonic PBS pH 7.4, pH 7.4, PBS pH 7.4 Isotonic, HPB:PEP 10:1). The solubility in data set [3] (isotonic PBS with HPB, pH 7.4, PBS pH 7.4 Isotonic, HPB:PEP 1:2) is 2.5 mg/mL; in data set [3] (isotonic PBS with dextrose, pH 7.4, PBS pH 7.4 Isotonic, DEX:PEP 1:8) it was 2 mg/mL; in data set [3] (isotonic PBS with dextrose, pH 7.4, PBS pH 7.4 Isotonic, DEX:PEP 5:1), 1.6 mg/mL; in data set [3] (isotonic saline, Saline Isotonic, HPB:PEP 15:1), 10 mg/mL; in data set [3] (isotonic saline, Saline Isotonic, Lys-HCl:PEP 4:1) it was 1.7 mg/mL; in data set [3] (lactic acid buffer pH 4.0, isotonic, pH 4, Lactic acid buffer pH 4.0 Isotonic, MAN:PEP 20:1, HPB:PEP 15:1, Est. = estimated by UV-Vis), 500 mg/mL. Besides, the solubility in data set [3] (lactic acid buffer pH 4.0, isotonic, pH 4, Lactic acid buffer pH 4.0 Isotonic, Mannitol MAN:PEP 20:1, Est. = estimated by UV-Vis) was 500 mg/mL; in data set [3] (normal saline (0.9% NaCl), NS - 0.9% NaCl, additives none) it was 1 to 2 mg/mL; in data set [3] (water, additives none), at least 300 mg/mL.
